Data: patent publication US20220324835A1 (Nurix Therapeutics, Inc., priority 2018, published 2022)

What was measured:
[1] = target: T1, Cbl-b (Homo sapiens, UniProt Q13191); test: Cbl-b inhibition assay (Cbl-b activity assay, FRET, Biological Example 1; 100 mM NaCl, 60 nM Src kinase); assay type: biochemical; details: upper bound stated in text lists; read-out: IC50 values in the Cbl-b inhibition assay of Biological Example 1
How it was run: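 Inhibitor activity is measured as reduced terbium-to-fluorescein FRET between streptavidin-terbium on biotinylated Cbl-b and Bodipy-fluorescein ubiquitin carried by an irreversible UbcH5B-Ub conjugate, binding of which depends on Src phosphorylation of Cbl-b.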

[2] = tested on: T-cell; test: IL-2 secretion from T-cells co-stimulated with anti-CD3 and anti-CD28 antibody (Biological Example 2); assay type: cell-based, human; details: Homo sapiens, T-cell, read-out: IL-2 secretion Anti-CD3/Anti-CD28 stimulation; for fold induction at 0.3 µM: 0.3 μM Cbl-b inhibitor; for fold induction at 1 µM: 1 μM Cbl-b inhibitor; for fold induction at 4 µM: 4 μM Cbl-b inhibitor
How it was run: (§1)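 T-cells were stimulated with anti-CD3 antibody alone or with anti-CD28 antibody, in the presence or absence of Cbl-b inhibitor. IL-2 secretion or CD25 surface staining was measured, and values expressed as fold over the uninhibited baseline […].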

[3] = tested on: T-cell; test: IL-2 secretion from T-cells stimulated with anti-CD3 antibody alone (Biological Example 2); assay type: cell-based, human; details: T-cell, read-out: IL-2 secretion Anti-CD3 stimulation; for fold induction at 1 µM: 1 μM Cbl-b inhibitor; for fold induction at 8 µM: 8 μM Cbl-b inhibitor
[4] = tested on: T-cell; test: CD25 cell surface staining on T-cells co-stimulated with anti-CD3 and anti-CD28 antibody (Biological Example 2); assay type: cell-based, human; details: Homo sapiens, T-cell, read-out: CD25 staining Anti-CD3/Anti-CD28 stimulation; for fold induction at 0.3 µM: 0.3 μM Cbl-b inhibitor; for fold induction at 1 µM: 1 μM Cbl-b inhibitor; for fold induction at 4 µM: 4 μM Cbl-b inhibitor
How it was run: as §1

[5] = tested on: T-cell; test: CD25 cell surface staining on T-cells stimulated with anti-CD3 antibody alone (Biological Example 2); assay type: cell-based, human; details: T-cell, read-out: CD25 staining Anti-CD3 stimulation; for fold induction at 1 µM: 1 μM Cbl-b inhibitor; for fold induction at 8 µM: 8 μM Cbl-b inhibitor
[6] = target: T1, Cbl-b; test: Cbl-b activity assay (Cbl-b inhibition assay), TR-FRET of Cbl-b interaction with UbcH5B-Ub; assay type: biochemical; details: assay buffer with 100 mM NaCl, 60 nM Src kinase; read-out: Cbl-b activity IC50
How it was run: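 UbcH5B (C85K) conjugated to N-terminally Bodipy-Fluorescein-labeled ubiquitin served as the fluorescent partner. After compound preincubation, Src kinase (60 nM) with 1 mM ATP and 5 mM MgCl2 (final) was added for 1.5 h, followed by a further 1 h incubation. Some values were obtained with 50 mM NaCl and 30 nM Src.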

[7] = fold change over baseline (anti-CD3/anti-CD28 stimulated T-cells without inhibitor)
[8] = Homo sapiens, fold change over baseline (anti-CD3/anti-CD28 stimulated T-cells without inhibitor)
[9] = fold change over baseline, primary human total T-cells

T1 sequence (Q13191 36-427): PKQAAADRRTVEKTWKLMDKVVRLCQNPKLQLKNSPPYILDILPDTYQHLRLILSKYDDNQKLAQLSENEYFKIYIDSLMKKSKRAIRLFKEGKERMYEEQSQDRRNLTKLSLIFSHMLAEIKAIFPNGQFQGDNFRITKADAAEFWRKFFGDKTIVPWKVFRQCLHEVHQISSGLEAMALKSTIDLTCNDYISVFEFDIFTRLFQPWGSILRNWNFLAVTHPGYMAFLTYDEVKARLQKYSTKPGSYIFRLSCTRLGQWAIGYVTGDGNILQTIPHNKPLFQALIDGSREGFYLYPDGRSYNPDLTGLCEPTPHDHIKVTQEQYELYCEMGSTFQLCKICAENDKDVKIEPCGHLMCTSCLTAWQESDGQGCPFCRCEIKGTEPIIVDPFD

| Structure (SMILES) | IC50 [1] | fold induction at 0.3 µM [2, 7] | fold induction at 1 µM [2, 7] | fold induction at 1 µM [3, 8] | fold induction at 0.3 µM [4, 7] | fold induction at 1 µM [4, 7] | fold induction at 1 µM [5, 8] | IC50 [6] | fold induction at 0.3 µM [2, 9] | fold induction at 1 µM [2, 9] | fold induction at 4 µM [2, 9] | fold induction at 1 µM [3, 9] | fold induction at 8 µM [3, 9] | fold induction at 0.3 µM [4, 9] | fold induction at 1 µM [4, 9] | fold induction at 4 µM [4, 9] | fold induction at 1 µM [5, 9] | fold induction at 8 µM [5, 9] |
| --- | --- | --- | --- | --- | --- | --- | --- | --- | --- | --- | --- | --- | --- | --- | --- | --- | --- | --- |
| CN1C[C@H]2C[C@@H]1CN2c1cc2c(c(C(F)(F)F)c1)CN(c1cccc(C3(Cc4nncn4C)COC3)c1)C2=O [Example 569, 2-(3-(3-((4-Methyl-4H-1,2,4-triazol-3-yl)methyl)oxetan-3-yl)phenyl)-6-((1R,4R)-5-methyl-2,5-diazabicyclo[2.2.1]heptan-2-yl)-4-(trifluoromethyl)isoindolin-1-one] | ≤ 100 nM | > 7.5 | > 7.5 | > 0.201 | 1.31 to 1.5 | 1.31 to 1.5 | > 1 | < 100 nM |  |  |  |  |  |  |  |  |  |  |
| Cn1cnnc1CC1(c2cccc(NC(=O)c3ccnc4ccnn34)c2)COC1 [Example 605, N-(3-(3-((4-methyl-4H-1,2,4-triazol-3-yl)methyl)oxetan-3-yl)phenyl)pyrazolo[1,5-a]pyrimidine-7-carboxamide] | ≤ 300 nM | 1.01 to 2.5 | 2.51 to 5 | < 0.05 | 1.01 to 1.3 | 1.01 to 1.3 | 0.601 to 0.8 | 100 to 300 nM |  |  |  |  |  |  |  |  |  |  |
| Cn1cnnc1CC1(c2cccc(N3Cc4c(cc(C5CCOC5)cc4C(F)(F)F)C3=O)c2)COC1 (centres unmarked) [Example 613, 2-(3-(3-((4-methyl-4H-1,2,4-triazol-3-yl)methyl)oxetan-3-yl)phenyl)-6-(THF-3-yl)-4-(trifluoromethyl)isoindolin-1-one] | ≤ 100 nM | 2.51 to 5 | 5 to 7.5 | 0.101 to 0.15 | 1.01 to 1.3 | 1.01 to 1.3 | 0.801 to 1 | < 100 nM |  |  |  |  |  |  |  |  |  |  |
| Cn1cnnc1CC1(c2cccc(NC(=O)c3cc(C4CC4)nc(C(F)(F)F)n3)c2)COC1 [Compound 341, 6-cyclopropyl-N-(3-(3-((4-methyl-4H-1,2,4-triazol-3-yl)methyl)oxetan-3-yl)phenyl)-2-(trifluoromethyl)pyrimidine-4-carboxamide] | ≤ 100 nM |  |  |  |  |  |  | < 100 nM | 2.51 to 5 | > 7.5 | > 7.5 | 0.151 to 0.2 | > 0.201 | 1.01 to 1.3 | 1.31 to 1.5 | 1.51 to 1.75 | 0.801 to 1 | > 1 |
| C[C@H](Cc1nncn1C)c1cc(C2CCOCC2)nc(N2Cc3c(cccc3C(F)(F)F)C2=O)c1 [Example 686, (R)-2-(4-(1-(4-methyl-4H-1,2,4-triazol-3-yl)propan-2-yl)-6-(tetrahydro-2H-pyran-4-yl)pyridin-2-yl)-4-(trifluoromethyl)isoindolin-1-one] | ≤ 1000 nM | 1.01 to 2.5 | 1.01 to 2.5 | < 0.05 | 1.01 to 1.3 | 1.01 to 1.3 | < 0.6 | 301 to 1000 nM |  |  |  |  |  |  |  |  |  |  |
| Cn1cnnc1[C@H](F)C1(c2cccc(N3Cc4c(cc(CN5CCCCC5)cc4C(F)(F)F)C3=O)c2)COC1 [Example 674b, (R)-2-(3-(3-(fluoro(4-methyl-4H-1,2,4-triazol-3-yl)methyl)oxetan-3-yl)phenyl)-6-(piperidin-1-ylmethyl)-4-(trifluoromethyl)isoindolin-1-one] | ≤ 100 nM | > 7.5 | > 7.5 | > 0.201 | 1.01 to 1.3 | 1.01 to 1.3 | > 1 | < 100 nM |  |  |  |  |  |  |  |  |  |  |
| CC(c1cc(C(=O)Nc2cccc(C3(Cc4nncn4C)COC3)c2)nc(C2CC2)n1)N1CCC2(CC2)C1 (stereo in doubt) [Example 592a, (R)-6-(1-(5-azaspiro[2.4]heptan-5-yl)ethyl)-2-cyclopropyl-N-(3-(3-((4-methyl-4H-1,2,4-triazol-3-yl)methyl)oxetan-3-yl)phenyl)pyrimidine-4-carboxamide] | ≤ 100 nM | 5 to 7.5 | > 7.5 | > 0.201 | 1.01 to 1.3 | 1.01 to 1.3 | > 1 | < 100 nM |  |  |  |  |  |  |  |  |  |  |
| Cc1cc(C(=O)Nc2cccc(C3([C@@H](F)c4nncn4C)COC3)c2)nc(C2CC2)n1 [Example 669b, (R)-2-cyclopropyl-N-(3-(3-(fluoro(4-methyl-4H-1,2,4-triazol-3-yl)methyl)oxetan-3-yl)phenyl)-6-methylpyrimidine-4-carboxamide] | ≤ 100 nM | 2.51 to 5 | > 7.5 | > 0.201 | 1.01 to 1.3 | 1.31 to 1.5 | > 1 | < 100 nM |  |  |  |  |  |  |  |  |  |  |
| CC(c1cc(C(=O)Nc2cccc(C3(Cc4nncn4C)COC3)c2)nc(C2CC2)n1)N1CCCC1 (stereo not drawn) [Example 593, 2-Cyclopropyl-N-(3-(3-((4-methyl-4H-1,2,4-triazol-3-yl)methyl)oxetan-3-yl)phenyl)-6-(l-(pyrrolidin-1-yl)ethyl)pyrimidine-4-carboxamide] | ≤ 100 nM | > 7.5 | > 7.5 | > 0.201 | 1.31 to 1.5 | 1.31 to 1.5 | > 1 | < 100 nM |  |  |  |  |  |  |  |  |  |  |
| Cc1cc2c(c(C3CC3)n1)CN(c1cccc(C3(Cc4nncn4C)COC3)c1)C2=O [Example 692, 4-cyclopropyl-6-methyl-2-(3-(3-((4-methyl-4H-1,2,4-triazol-3-yl)methyl)oxetan-3-yl)phenyl)-2,3-dihydro-1H-pyrrolo[3,4-c]pyridin-1-one] | ≤ 100 nM | 1.01 to 2.5 | 2.51 to 5 | 0.051 to 0.1 | 1.01 to 1.3 | 1.31 to 1.5 | 0.801 to 1 | < 100 nM |  |  |  |  |  |  |  |  |  |  |
| Cn1cnnc1[C@H](F)C1(c2cccc(N3Cc4c(cc(CN5CCCC5)cc4C(F)(F)F)C3=O)c2)COC1 [Example 673b, (R)-2-(3-(3-(fluoro(4-methyl-4H-1,2,4-triazol-3-yl)methyl)oxetan-3-yl)phenyl)-6-(pyrrolidin-1-ylmethyl)-4-(trifluoromethyl)isoindolin-1-one] | ≤ 100 nM | > 7.5 | > 7.5 | > 0.201 | 1.31 to 1.5 | 1.31 to 1.5 | > 1 | < 100 nM |  |  |  |  |  |  |  |  |  |  |
| Cc1cc(C(=O)Nc2cccc(C3(Cc4nncn4C)COC3)c2)nc(C2CCC2)n1 [Compound 340, 2-cyclobutyl-6-methyl-N-(3-(3-((4-methyl-4H-1,2,4-triazol-3-yl)methyl)oxetan-3-yl)phenyl)pyrimidine-4-carboxamide] | ≤ 100 nM |  |  |  |  |  |  | < 100 nM | 1.01 to 2.5 | 5 to 7.5 | > 7.5 | 0.151 to 0.2 | > 0.201 | 1.01 to 1.3 | 1.01 to 1.3 | 1.31 to 1.5 | 0.801 to 1 | > 1 |
